These results are taken from US8349854B2, “Salts of 4-aniline quinazoline derivative” (priority 2007, dated 2013).

Data set [1] in a line: Drug absorption in SD rat, intragastric administration (ig). It is filed as in vivo. As for the experimental part: The blood samples were collected 0.5, 1.0, 1.5, 2.0, 3.0, 5.0, 7.0, 9.0, 12 and 24 hours after administration, which were then centrifugated respectively to obtain the plasma. The concentration of the drug in the plasma was determined by means of liquid chromatography/tandem mass spectrometer, and the concentration-time curve was obtained.

Data set [2] concerns human epidermoid squamous cancer cells A431. The settings on record: from PCT/CN2006/002786, result in words; cited from earlier work.
Data set [3] can be described thus: Solubility test in water and in methanol at room temperature. The data set is classed as physicochemical. The settings on record: thermodynamic from solid. The method, then: According to the conventional method for determining the solubility, at the room temperature, a suitable amount of the compound to be tested was placed in 15 mL of water. Then the compound was dissolved by sufficient stir. The solution is placed at room temperature for 3 hours. Then 10 ml of the clear saturated supernatant was transferred into the weighing bottle with the pipette. The solvent was evaporated by heating, and the residue was dried and weighed to obtain the mass of the residue, which was the mass of the solute. After calculation, the solubility of the compound of formula (I) and the salts thereof in water can be obtained. The solubility of the compound to be tested in methanol was determined along the same lines.

Data set [4] relates to human epidermoid squamous cancer cells A431. The settings on record: from PCT/CN2006/002786, result in words; cited from earlier work. The source holds these as a separate data set.
The subject of data set [5] is human mammary cancer cells BT-474. The settings on record: from PCT/CN2006/002786, result in words; cited from earlier work.
Data set [6] deals with Erb-B2 (Homo sapiens, UniProt P04626). The settings on record: in vitro; from PCT/CN2006/002786, result in words; cited from earlier work.
Sequence of Erb-B2 (P04626 23-1255, species assumed): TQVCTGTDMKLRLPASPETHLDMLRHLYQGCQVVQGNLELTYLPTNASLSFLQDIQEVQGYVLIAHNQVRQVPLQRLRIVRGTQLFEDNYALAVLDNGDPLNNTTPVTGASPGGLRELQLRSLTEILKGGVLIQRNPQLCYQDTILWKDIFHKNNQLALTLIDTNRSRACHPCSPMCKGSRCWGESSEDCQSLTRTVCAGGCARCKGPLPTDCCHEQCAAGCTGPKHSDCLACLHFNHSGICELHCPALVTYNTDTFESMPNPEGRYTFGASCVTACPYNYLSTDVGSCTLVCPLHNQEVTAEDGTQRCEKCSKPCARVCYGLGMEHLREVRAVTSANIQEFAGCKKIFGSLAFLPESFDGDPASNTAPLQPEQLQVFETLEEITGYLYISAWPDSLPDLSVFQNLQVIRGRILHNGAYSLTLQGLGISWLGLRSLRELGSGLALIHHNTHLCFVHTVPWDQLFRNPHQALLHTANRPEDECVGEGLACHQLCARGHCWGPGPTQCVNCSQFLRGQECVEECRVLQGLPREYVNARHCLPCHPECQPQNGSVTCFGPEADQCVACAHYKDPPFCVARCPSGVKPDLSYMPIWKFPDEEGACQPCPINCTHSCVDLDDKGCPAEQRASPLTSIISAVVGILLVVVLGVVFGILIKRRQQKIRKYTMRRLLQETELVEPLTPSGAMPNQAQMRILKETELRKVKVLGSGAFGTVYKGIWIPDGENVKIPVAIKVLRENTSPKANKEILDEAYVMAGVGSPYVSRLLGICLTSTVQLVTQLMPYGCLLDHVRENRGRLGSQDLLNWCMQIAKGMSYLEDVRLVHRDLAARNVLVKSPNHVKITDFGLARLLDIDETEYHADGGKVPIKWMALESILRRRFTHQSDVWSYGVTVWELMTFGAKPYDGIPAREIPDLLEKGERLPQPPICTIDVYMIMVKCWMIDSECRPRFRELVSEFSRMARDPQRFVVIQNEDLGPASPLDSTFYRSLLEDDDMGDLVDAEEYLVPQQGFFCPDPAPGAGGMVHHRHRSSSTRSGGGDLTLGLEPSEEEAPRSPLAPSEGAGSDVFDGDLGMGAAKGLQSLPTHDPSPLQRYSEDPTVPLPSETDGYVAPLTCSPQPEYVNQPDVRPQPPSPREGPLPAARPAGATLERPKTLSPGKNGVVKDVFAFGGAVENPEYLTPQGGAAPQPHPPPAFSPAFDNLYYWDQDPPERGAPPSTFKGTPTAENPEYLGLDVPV
Data set [7] concerns the target EGFR tyrosine kinases (Homo sapiens, UniProt P00533). Put plainly: Inhibitory effect on EGFR tyrosine kinases (ELISA, Poly(Glu,Tyr) 4:1). It is filed as biochemical. The settings on record: result in words. The method, then: The plate coated with EGFR tyrosine kinases reaction substrate Poly(Glu, Tyr) 4:1 was washed three times with T-PBS and dried in oven at the temperature of 37° C. Every well was added with the ATP solution diluted with reaction buffer, the compound to be tested with grading concentrations and the tyrosine kinases to be tested in sequence to initiate the reaction. The plate was incubated in a shaker for 1 hour at the temperature of 37° C., and then was washed three times with T-PBS (the phosphate buffer containing 0.05% of Tween with a pH of 7.4). Antibody PY99 was added and the reaction was kept on at 37° C. for 1 hour. The plate was washed three times with T-PBS, HRP labeled goat anti mouse IgG was then added and incubated at 37° C. for 1 hour. The colorimetric solution of OPD (o-phenylenediamine) was added and the mixture was reacted in dark at room temperature for 1-10 min. The reaction was terminated by the addition of 2M of H2SO4. The OD value at wavelength of 492 nm was measured using the VersaMax™ microplate reader (MDC company, USA). The inhibitory effect of the samples on EGFR tyrosine kinases was determined by the following formula: Inhibition %=[1−(OD Value of the compound to be tested −OD Value of the control without enzyme)/(OD Value of the negative control−OD Value of the control without enzyme)]×100%.
On the technique in general: In an ELISA, binding on a coated surface is turned into a signal by an enzyme label.

For data set [8], the system named is human ovarian cancer SKOV-3. Put plainly: Anti-tumor effect on human ovarian cancer SKOV-3 transplanted to the BALB/cA nude rat. The data set is classed as in vivo. The method, then:
A tumor SKOV-3 in vigorous growth period was selected and incised into several bits of an even size of about 1.5 mm^3, which was inoculated subcutaneously to the right armpit of the BALB/cA nude rats using trocar under sterile condition. The diameters of the transplanted tumors were measured with a vernier caliper. The animals were grouped randomly when the tumors reached a size of 80-100 mm^3. The tested animals of the group receiving the compounds to be tested were administrated with the compounds by gavage through mouth once daily for 3 weeks continuously. The positive control drug MMC (Mitomycin) was administered by intravenous injection once on the first day with a dose of 5 mg/kg. The negative control group was administered with 0.5% CMC-Na (Carboxymethyl Cellulose Sodium) with a dose of 0.2 mL/per rat. The major axis (a) and the minor axis (b) of the tumors were measured twice every week and the rats were weighed at the same time. According to the formula V=ab^2/2, the tumor volume (mm^3) could be calculated, based on which the relative tumor volume (RTV) was determined (Formula: RTV=Vt/V0, wherein V0 represents the tumor volume measured at the grouping time (i.e. d0), and Vt represents the tumor volume measured each time). The relative tumor proliferation rate T/C (%) was chosen here to evaluate the anti-tumor activity, which can be calculated according to the following formula: T/C(%)=(TRTV/CRTV)×100%
TRTV: RTV of the group receiving the compounds to be tested; CRTV: RTV of negative control group

The subject of data set [9] is human epidermatoid squamous cancer A431. The experiment in a line: Anti-tumor effect on human epidermatoid squamous cancer A431 transplanted to the BALB/cA nude rat. The settings on record: for Weight of animals (without tumor) / inhibition for tumor % / Weight of tumors x ± SD: 13 days; for Weight of tumors x ± SD: 23 days after inoculation. The data set is classed as in vivo. The method, then:
A well-developed solid tumor A431 was selected and incised into several bits of an even size of 2-3 mm, with one bit being inoculated subcutaneously to the right armpit of each of the BALB/cA nude rats using trocar. 7 days after inoculation, the rats were grouped randomly and were administrated with the compounds by gavage through mouth for 13 days continuously. The major axis (a) and the minor axis (b) of the tumors were measured with a vernier caliper every 4 days. According to the formula V=ab^2/2, the tumor volume (mm^3) could be calculated. The tested animals were neck-off killed 23 days after the inoculation, and anatomized to obtain the tumors. The tumors were weighed and the inhibitory effect of the compounds to be tested was figured out.

The test system of data set [10] is human epidermatoid squamous cancer cell A431. Put plainly: Inhibition of proliferation of tumor cell lines (MTT), A431. The data set is classed as cell-based. The settings on record: 72 h. As for the experimental part: (§1) A DMSO solvent control well and a blank well were set in the plate. […] The incubation was continued for 4 h, and 50 μL of triple-expansion solution (10% SDS-5% of isobutyl alcohol-0.01 mol/L of HCl) was added. The plate was placed in the incubator overnight. The OD value was measured by the microplate reader at wavelength of 570 nm.

The conditions of data set [11]: SD rats, gavage 4 weeks, 20, 50, 100, 500 and 800 mg/(kg·day). The method, then:
Five test groups with the dose of 20, 50, 100, 500 and 800 mg/(kg·day) respectively and a solvent control group were set.

Data set [12] has as its system human breast cancer cell BT-474. Put plainly: Inhibition of proliferation of tumor cell lines (MTT), BT-474. It is filed as cell-based. The settings on record: BT-474, MTT, 72 h. The method, then:
as §1

The nature of data set [13]: Drug absorption in SD rat, intravenous injection (iv). It is filed as in vivo. The settings on record: 5 mg/kg. As for the experimental part: The blood samples were collected 5 min, 15 min, 0.5, 1.5, 2.0, 3.0, 4.0, 5.0, 7.0 hours after administration, which were then centrifugated respectively to obtain the plasma. The concentration of the drug in the plasma was determined by means of liquid chromatography/tandem mass spectrometer, and the concentration-time curve was obtained.

Where [14] appears, read: SD rat, ig, dosage 21.68 (formula (I)), 23.42 (hydrochloride), 30 mg/kg (p-toluenesulfonate).
Where [15] appears, read: 50 mg/kg ig once daily for 3 weeks.
[16] abbreviates: 100 mg/kg ig once daily for 3 weeks.
Where [17] appears, read: 200 mg/kg ig once daily for 3 weeks.

Where two headings read alike, the source gives them in different places. Some results are limits rather than exact numbers.

Sequence of EGFR tyrosine kinases (P00533 25-1210): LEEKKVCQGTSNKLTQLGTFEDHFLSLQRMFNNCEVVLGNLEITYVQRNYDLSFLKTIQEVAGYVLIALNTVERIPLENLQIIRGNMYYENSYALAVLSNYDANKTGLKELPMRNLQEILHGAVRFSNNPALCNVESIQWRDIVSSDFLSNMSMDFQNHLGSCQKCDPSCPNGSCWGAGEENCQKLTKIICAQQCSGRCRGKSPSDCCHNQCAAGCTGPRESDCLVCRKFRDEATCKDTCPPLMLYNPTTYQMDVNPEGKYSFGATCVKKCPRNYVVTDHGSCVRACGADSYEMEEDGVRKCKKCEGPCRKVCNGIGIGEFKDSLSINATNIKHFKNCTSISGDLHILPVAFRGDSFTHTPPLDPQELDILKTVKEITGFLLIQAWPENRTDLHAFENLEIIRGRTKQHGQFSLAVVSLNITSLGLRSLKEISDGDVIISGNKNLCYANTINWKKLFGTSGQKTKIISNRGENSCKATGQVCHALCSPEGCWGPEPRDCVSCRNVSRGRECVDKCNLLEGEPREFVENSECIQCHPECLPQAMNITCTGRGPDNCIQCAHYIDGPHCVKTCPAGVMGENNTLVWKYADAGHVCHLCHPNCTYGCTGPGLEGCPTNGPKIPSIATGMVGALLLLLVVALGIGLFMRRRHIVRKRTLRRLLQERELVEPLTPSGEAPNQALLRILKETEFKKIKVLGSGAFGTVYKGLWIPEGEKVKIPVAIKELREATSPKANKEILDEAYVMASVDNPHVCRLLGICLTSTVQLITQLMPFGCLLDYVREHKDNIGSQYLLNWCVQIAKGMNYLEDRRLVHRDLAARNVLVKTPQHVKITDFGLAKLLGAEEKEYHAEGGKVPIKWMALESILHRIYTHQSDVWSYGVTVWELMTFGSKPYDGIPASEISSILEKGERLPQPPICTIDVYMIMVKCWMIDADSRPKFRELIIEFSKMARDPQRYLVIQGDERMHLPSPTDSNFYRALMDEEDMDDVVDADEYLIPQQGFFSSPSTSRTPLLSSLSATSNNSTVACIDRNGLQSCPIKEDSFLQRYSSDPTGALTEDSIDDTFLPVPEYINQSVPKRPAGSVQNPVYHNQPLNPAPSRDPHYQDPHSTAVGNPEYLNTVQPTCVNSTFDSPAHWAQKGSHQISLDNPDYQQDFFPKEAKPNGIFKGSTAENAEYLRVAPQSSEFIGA

The molecule `C=CC(=O)Nc1ccc2ncnc(Nc3ccc(OCc4cccc(F)c4)c(Cl)c3)c2c1` [Compound of formula (I), N-{4-[3-chloro-4-(3-fluoro-benzyloxy)phenylamino]quinazolin-6-yl}-acrylamide] had a half-life in data set [1] (male, SD, rat, plasma, po, 30 mg/kg) of 1.81 h. Besides, in [1] (male, SD, rat, plasma, po, 30 mg/kg, read-out: AUC0-t), the AUC0-t was 106 ng·h/mL. For the same molecule, the Cmax in data set [1] (male, SD, rat, plasma, po, 30 mg/kg, read-out: Cmax) worked out at 32 ng/mL. In addition, the Tmax in data set [1] (male, SD, rat, plasma, po, 30 mg/kg, read-out: Tmax) came to 0.75 h. Also, in [1] (male, plasma, po, 21.68 mg/kg, SD rat, revised by dosage, calculated by AUC0-t, read-out: absolute bioavailability by ig), the bioavailability was 0.95%. Also, the “inhibitory activity of human epidermoid squamous cancer cells A431” value in data set [2] is listed as “relatively good inhibitory activity”. Besides, the solubility at 3 h in [3] (organic solvent or mixture, methanol, read-out: Solubility in methanol(/mL)) is under 1000 µg/mL; in data set [3] (water, read-out: Solubility in water(/mL)), under 0.01 µg/mL. Besides, the “anti-tumor effect on A431 transplanted to a nude rat” value in [4] is reported as “conspicuous anti-tumor effect”. Further, the “inhibitory activity of human mammary cancer cells BT-474” value in [5] is “relatively good inhibitory activity”. Also, the “inhibitory activity against Erb-B2” value in [6] was “excellent inhibitory activity”.

On to `C=CC(=O)Nc1ccc2ncnc(Nc3ccc(OCc4cccc(F)c4)c(Cl)c3)c2c1.Cc1ccc(S(=O)(=O)O)cc1` [p-Toluenesulfonate, p-Toluenesulfonate of N-{4-[3-chloro-4-(3-fluoro-benzyloxy)phenylamino]quinazolin-6-yl}-acrylamide], for which the “inhibitory activity of EGFR tyrosine kinases” value in [7] is listed as “excellent inhibitory activity”. Moreover, in data set [1] (setting [14]), the AUC0-t is 1235 ng·h/mL, the Cmax worked out at 333 ng/mL, the T1/2 is recorded as 1.22 h and the Tmax came out at 3.38 h. Further, in data set [1] (SD rat, revised by dosage, calculated by AUC0-t), the “absolute bioavailability by ig” value is on record as 11.07%. Moreover, in [8] (setting [15]), the RTV amounted to 5.1 ± 1.7, the T/C turned out to be 53.0% and the “Volume of tumor V21” value amounted to 421 ± 89 mm^3. For the same molecule, in data set [8] (setting [16]), the RTV worked out at 4.3 ± 1.3, the T/C came to 45.0% and the “Volume of tumor V21” value turned out to be 345 ± 88 mm^3. In data set [8] (setting [17]), the RTV worked out at 3.5 ± 0.8, the T/C turned out to be 36.9% and the “Volume of tumor V21” value amounted to 303 ± 72 mm^3. In addition, the “tumor inhibitory effect (SKOV-3 xenograft)” value in data set [8] (result in words) is recorded as “conspicuous tumor inhibitory effect”. For the same molecule, in data set [9] (25 mg/kg ig), the “Weight of animals (without tumor)” value is 21.58 ± 2.18 g, the “inhibition for tumor %” value came to 29.99% and the “Weight of tumors x ± SD” value turned out to be 0.79 ± 0.20 g. Moreover, in [9] (50 mg/kg ig), the “Weight of animals (without tumor)” value was found to be 22.05 ± 1.59 g, the “inhibition for tumor %” value came to 37.15% and the “Weight of tumors x ± SD” value came out at 0.71 ± 0.20 g. Also, in [9] (100 mg/kg ig), the “Weight of animals (without tumor)” value is recorded as 22.35 ± 1.92 g, the “inhibition for tumor %” value is listed as 48.65% and the “Weight of tumors x ± SD” value was determined as 0.58 ± 0.21 g. The “inhibitory effect on the tumors (A431 xenograft)” value in data set [9] (result in words) was “significant inhibitory effect”. Besides, the IC50 in data set [10] turned out to be 730 nM. Also, in data set [11], the food intake result is on record as “normal food intake” and the “physical signs, appearance, behaviors, activities or shape of dejecta” value is “no abnormality”. In [12], this molecule yielded an IC50 of 420 nM. In data set [13], the AUC0-t worked out at 1860 ng·h/mL, the Cmax was determined as 1745 ng/mL, the T1/2 amounted to 1.55 h and the Tmax worked out at 4.98 min.

The term half-life denotes the time in which the quantity being followed falls by half. A low value points to fast loss. What is called Cmax is the peak of the concentration-time curve. Broadly, the Tmax is the time from dosing to the highest level. The term bioavailability denotes the share of a dose that reaches the circulation, judged against a reference dose that is usually intravenous. What is called T/C is the ratio of treated to control. Broadly, the IC50 is the concentration that gives 50% inhibition. High values mean weaker potency in that assay, low ones greater potency in that assay.
